# In patent US6653286B1, “Gonadotropin releasing hormone antagonist” (Akzo Nobel NV, priority 1997, dated 2003):
# Square brackets hold non-standard residues; d marks the D form. Peptide text beside a SMILES is read from it. d(hArg(Et2)) = CCN=C(NCC)NCCCC[C@@H](N)C(=O)O; hArg(Et2) = CCN=C(NCC)NCCCC[C@H](N)C(=O)O; dPhe(4-Cl) = N[C@H](Cc1ccc(Cl)cc1)C(=O)O; d2Nal = N[C@H](Cc1ccc2ccccc2c1)C(=O)O; d3Pal = N[C@H](Cc1cccnc1)C(=O)O
# Experiments:
# [1] = tested on: premature LH surges; experiment: phase II double-blind dose-finding study of ganirelix in women undergoing controlled ovarian hyperstimulation with recFSH; type: in vivo, human
# Description: In order to establish the minimum effective dose of ganirelix to prevent premature LH surges in women undergoing COH with recombinant FSH, a double-blind dose-finding study was performed with 6 test doses ranging between 2 mg and 0.0625 mg ganirelix.
# This study was a phase II, multi-centre, double-blind, randomized, dose-finding study to assess the efficacy of the GnRH-antagonist ganirelix to prevent premature LH surges in women undergoing controlled ovarian hyperstimulation with recFSH. The dosages of ganirelix are administered by one daily SC administration.
# RecFSH treatment started on day 2 of the menstrual cycle (treatment day -5) by a once daily SC injection. From treatment day -5 through day -1 the dose of recFSH was fixed at 150 IU daily. After 5 days of recFSH treatment (day 7 of the menstrual cycle), ganirelix treatment was started by daily SC administration. Treatment continued until and including the last day of recFSH administration. During ganirelix treatment, the dose of recFSH was adjusted depending on the individual ovarian response as assessed by daily ultra sonographic scan (USS). As soon as at least 3 folicles ≧17 mm measured by USS were observed, hCG was administered for ovulation induction. About 30-36 hours thereafter oocyte pick-up was performed followed by in vitro fertilization (IVF) with or without intracytoplasmic sperm injection (ICSI). No more than 3 embryos were replaced.
# If during ganirelix treatment a premature LH rise occurred e.g. at least one value of serum LH ≧15 IU/L according to the local LH immunoassay the investigator canceled the cycle or tried to rescue the cycle by giving hCG prematurely. In addition, the investigator notified the sponsor about the occurrence of the LH rise and the central laboratory was requested to confirm the LH rise was ≧10 IU/L according to the central LH immunoassay. Subsequently, all data of such subject with a premature LH rise were forwarded to an Independent Advisory Committee which was installed in order to advice on stopping a treatment arm in case of LH rises during ganirelix treatment.
# During the study, some investigators informed the sponsor on one or more cases of extremely low serum LH and failing estradiol concentrations as well as follicle growth arrest after starting ganirelix treatment. For this reason the External Independent Advisory Committee was requested to review all clinical data available in order to evaluate whether these observations were dose related and whether, in their opinion, there was reason to stop one or more treatment arms.
# In addition, the Independent Advisory Committee reviewed all rises of LH (≧15 IU/L according to the local LH immunoassay and ≧10 IU/L according to the central LH immunoassay) during ganirelix treatment. Based on their evaluation the External Committee advised the sponsor to stop the highest (2 mg) and lowest (0.0625 mg) treatment dose of ganirelix. The study was completed for the other dosage groups.
# In total 333 subjects started recFSH treatment and 332 subjects started ganirelix treatment. Because of major protocol violation 3 subjects were excluded from the analysis. The final number of patients per dosing group are included in Table 1.
# [2] = tested on: pituitary-gonadal axis; settings: cited from earlier work
smiles,measurement,setting,value
"CCN=C(NCC)NCCCC[C@H](NC(=O)[C@H](CC(C)C)NC(=O)[C@@H](CCCCNC(=NCC)NCC)NC(=O)[C@H](Cc1ccc(O)cc1)NC(=O)[C@H](CO)NC(=O)[C@@H](Cc1cccnc1)NC(=O)[C@@H](Cc1ccc(Cl)cc1)NC(=O)[C@@H](Cc1ccc2ccccc2c1)NC(C)=O)C(=O)N1CCC[C@H]1C(=O)N[C@H](C)C(N)=O [ganirelix, N-Acetyl-3-(2-naphtyl)-D-alanyl-4-chloro-D-phenylalanyl-3-(3-pyridyl)-D-alanyl-L-seryl-L-tyrosyl-N^ω,N^ω-diethyl-D-homoarginyl-L-leucin-N^ω,N^ω-diethyl-Lhomoarginyl-L-propyl-D-alanylamide acetate] (Ac-[d2Nal][dPhe(4-Cl)][d3Pal]SY[d(hArg(Et2))]L[hArg(Et2)]P[dA]-NH2)",Median serum E2 (estradiol) at the day of hCG (= last day of ganirelix),[1]; 0.0625 mg daily SC,1475 pg/mL
same,Median serum LH at the day of hCG (= last day of ganirelix),[1]; 0.0625 mg daily SC,3.56 IU/L
same,Incidence of LH rises,"[1]; 0.0625 mg daily SC, N = 31, number of subjects (%)",5 (16%)
same,Serum ganirelix concentration versus dose,[1]; 0.0625 mg to 2 mg daily SC,increased in a dose-proportional manner
same,Median serum E2 (estradiol) at the day of hCG (= last day of ganirelix),[1]; 0.125 mg daily SC,1130 pg/mL
same,Median serum LH at the day of hCG (= last day of ganirelix),[1]; 0.125 mg daily SC,2.46 IU/L
same,Incidence of LH rises,"[1]; 0.125 mg daily SC, N = 65, number of subjects (%)",6 (9.2%)
same,Median serum E2 (estradiol) at the day of hCG (= last day of ganirelix),[1]; 0.25 mg daily SC,1160 pg/mL
same,Median serum LH at the day of hCG (= last day of ganirelix),[1]; 0.25 mg daily SC,1.73 IU/L
same,Incidence of LH rises,"[1]; 0.25 mg daily SC, N = 69, number of subjects (%)",1 (1.4%)
same,Median serum E2 (estradiol) at the day of hCG (= last day of ganirelix),[1]; 0.5 mg daily SC,823 pg/mL
same,Median serum LH at the day of hCG (= last day of ganirelix),[1]; 0.5 mg daily SC,1.02 IU/L
same,Incidence of LH rises,"[1]; 0.5 mg daily SC, N = 69, number of subjects",0
same,Median serum E2 (estradiol) at the day of hCG (= last day of ganirelix),[1]; 1 mg daily SC,703 pg/mL
same,Median serum LH at the day of hCG (= last day of ganirelix),[1]; 1 mg daily SC,0.57 IU/L
same,Incidence of LH rises,"[1]; 1 mg daily SC, N = 65, number of subjects",0
same,Median serum E2 (estradiol) at the day of hCG (= last day of ganirelix),[1]; 2 mg daily SC,430 pg/mL
same,Median serum LH at the day of hCG (= last day of ganirelix),[1]; 2 mg daily SC,0.34 IU/L
same,Incidence of LH rises,"[1]; 2 mg daily SC, N = 30, number of subjects",0
same,miscarriage rate,[1]; 2 mg dose group,13%
same,vital pregnancy rate per attempt,"[1]; 2 mg dose group, per attempt (those who started hormonal treatment)",3.8%
same,vital pregnancy rate per transfer,"[1]; 2 mg dose group, per transfer (those who had embryo transfer)",4.3%
same,suppression of the pituitary-gonadal axis,"[2]; 1 mg or 2 mg daily SC for 8 consecutive days, reproductive age women","rapid, profound, reversible suppression"
same,maximal mean LH suppression,"[2]; 8 h after the first injection, 1 mg or 2 mg daily SC",approximately 60%
